Laboratory results as given in US20080161254A1, “HCV INHIBITORS” (ViroBay, Inc., priority 2007, published 2008).

What follows are compounds tested on HCV replication (HCV replicon-containing Huh7/Clone A cells) (assay: HCV replicon assay). Conditions: Hepatitis C virus, Huh-7, 48 hours incubation, HCV replicon RNA by RT-qPCR normalized to total RNA, read-out: IC50, inhibition of HCV replication.
Format: cell-based
Excerpt: The HCV replicon assay is a cell-culture system that mimics in vivo HCV replication and provides a system to study HCV replication in vitro. It was created by transfecting cloned viral RNA derived from a consensus HCV genomic sequence into human Huh7 hepatoma cells that are semi-permissive for viral RNA production (Lohmann V., Korner F., Koch J.-0., Herian U., Theilmann L. and Bartenschlager R. (1999). Replication of subgenomic Hepatitis C virus RNAs in a hepatoma cell line. Science 285, 110-113 and Blight K. J., Kolykhalov A. A. and Rice C. M. (2000). Efficient initiation of HCV RNA Replication in cell culture. Science 290, […]). These transfected cell lines contain a subgenomic HCV RNA genome that includes (1) the HCV 5′NTR fused to 12 amino acids of the capsid coding region, (2) the neomycin phosphotransferase gene (Neo) as a selectable marker, (3) the internal ribosome entry site (IRES) from encephalomyocarditis virus (EMCV) that directs translation of HCV non-structural proteins (variously NS2 or NS3 to NS5B), and (4) the 3′ NTR. Replicon-containing cells autonomously and persistently replicate HCV RNA that can be measured quantitatively by real-time qPCR. Therefore, the replicon system facilitates quantitative assessment of anti-viral activity by monitoring changes in HCV RNA replication in a cell-based assay.
HCV replicon-containing cells (Huh7/Clone A) were routinely maintained in Clone A growth medium (DMEM medium [Invitrogen], supplemented with 10% Fetal Bovine Serum, 1% Non Essential Amino Acids and 1 g/L G418). […]
Total RNA eluted in 130 μl of RNase-free dH2O was quantitated by the RiboGreen Assay according to the supplier's protocol (Molecular Probe). […] RNA samples in the black microplate were mixed with 95 μl of diluted RiboGreen reagent (1:250 dilution in TE buffer) and sample fluorescence was measured using a fluorescence microplate reader at standard fluorescein wavelengths (excitation ˜480 nm, emission ˜520 nm). […]
TaqMan quantitative PCR(RT-qPCR) was used to quantitate the amount of HCV replicon RNA in each sample. […]

Row | Structure (SMILES) | IC50 [µM]
1 | CCC[C@H](NC(=O)[C@@H]1C[C@@H](Oc2cc(-c3ccccn3)nc3ccsc23)CN1C(=O)[C@@H](NC(=O)NC(C)(C)C)C(C)(C)C)C(=O)C(=O)NC1CC1 [Example 5, (2S,4R)-1-((S)-2-(3-tert-butylureido)-3,3-dimethylbutanoyl)-N—((S)-1-(cyclopropylamino)-1,2-dioxohexan-3-yl)-4-(5-(pyridin-2-yl)thieno[3,2-b]pyridin-7-yloxy)pyrrolidine-2-carboxamide] | < 1
2 | CCC[C@H](NC(=O)[C@@H]1C[C@@H](Oc2nc(-c3ccccn3)nc3sccc23)CN1C(=O)[C@@H](NC(=O)NC(C)(C)C)C(C)(C)C)C(=O)C(=O)NC1CC1 [Example 6, (2S,4R)-1-((S)-2-(3-tert-butylureido)-3,3-dimethylbutanoyl)-N—((S)-1-(cyclopropylamino)-1,2-dioxohexan-3-yl)-4-(2-(pyridin-2-yl)thieno[2,3-d]pyrimidin-4-yloxy)pyrrolidine-2-carboxamide] | < 1
3 | CCC[C@H](NC(=O)[C@@H]1C[C@@H](Oc2nc(-c3ccccn3)nc3ccsc23)CN1C(=O)[C@@H](NC(=O)NC(C)(C)C)C(C)(C)C)C(=O)C(=O)NC1CC1 [Example 7, (2S,4R)-1-((S)-2-(3-tert-butylureido)-3,3-dimethylbutanoyl)-N—((S)-1-(cyclopropylamino)-1,2-dioxohexan-3-yl)-4-(2-(pyridin-2-yl)thieno[3,2-d]pyrimidin-4-yloxy)pyrrolidine-2-carboxamide] | < 1
